From ChEMBL document CHEMBL3987221, “The Australian National University Dept Of Immunology Pathogen Box Compounds Screened” (2018) come the findings set out here.

In assay [1] the target is T1, Ferrochelatase, mitochondrial (Homo sapiens) (UniProt P22830).
T1 sequence (whole entry): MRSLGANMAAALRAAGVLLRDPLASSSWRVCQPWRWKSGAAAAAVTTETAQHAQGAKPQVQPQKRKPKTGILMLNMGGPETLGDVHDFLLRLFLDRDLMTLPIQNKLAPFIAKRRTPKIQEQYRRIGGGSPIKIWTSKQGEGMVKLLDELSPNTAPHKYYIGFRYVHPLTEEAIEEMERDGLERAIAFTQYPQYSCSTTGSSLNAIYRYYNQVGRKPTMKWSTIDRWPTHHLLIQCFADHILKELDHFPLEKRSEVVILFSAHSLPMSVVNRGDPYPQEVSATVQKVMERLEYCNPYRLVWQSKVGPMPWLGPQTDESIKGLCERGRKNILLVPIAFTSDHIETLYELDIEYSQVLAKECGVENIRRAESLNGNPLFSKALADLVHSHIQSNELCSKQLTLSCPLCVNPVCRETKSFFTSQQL
As to conditions: at 10 µM.
Description: Compound was evaluated for the inhibition of human FECH at 10uM

Assay [2] deals with T2, Porphobilinogen deaminase (Homo sapiens) (UniProt P08397).
T2 sequence (whole entry): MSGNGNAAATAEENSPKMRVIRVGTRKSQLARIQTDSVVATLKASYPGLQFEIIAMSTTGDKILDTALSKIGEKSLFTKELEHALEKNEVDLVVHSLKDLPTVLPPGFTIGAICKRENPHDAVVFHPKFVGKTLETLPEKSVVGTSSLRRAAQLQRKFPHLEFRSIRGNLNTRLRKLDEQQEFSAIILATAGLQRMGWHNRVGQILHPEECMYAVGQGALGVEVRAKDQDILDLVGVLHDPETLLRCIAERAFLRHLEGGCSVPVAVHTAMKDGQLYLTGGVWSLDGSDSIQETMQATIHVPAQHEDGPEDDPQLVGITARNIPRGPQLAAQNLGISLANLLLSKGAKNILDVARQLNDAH
As to conditions: at 100 µM.
Description: Compound was evaluated for the inhibition of human HMBS at 100uM

Molecules are shown by their SMILES. Calls of active or inactive are those of the source. The rule behind the calls is not given here.

Consider `CCCn1c(NC(=O)c2ccc3ccccc3n2)nc2ccccc21`, for which the inhibition result in assay [1] and in assay [2] was “inactive” in each case.
Turning to `COc1ccc(CN2CCOc3ccc(C(C)(O)CN(C)C)cc3C2)cc1C` (stereo not given), the inhibition entry in assay [1] and in assay [2] was “inactive” throughout.
Turning to `CC(C)(C)c1cc(C(=O)Nc2cccnc2)cc(C(=O)Nc2cccnc2)c1`, the inhibition result in assay [1] and in assay [2] was “inactive” each time.
On to `Cc1ccc(S(=O)(=O)n2cc(-c3ccnc(N)c3)c3cc(Br)cnc32)cc1`, for which the inhibition result in assay [1] and in assay [2] was “inactive” in each case.
As to `O=C1O[C@@H](COc2ccon2)CN1c1cc(F)c(C2=CCN(Cc3ccccc3)CC2)c(F)c1`, the inhibition result in assay [1] and in assay [2] was “inactive” in each case.
As for `CC(C(=O)N1CCCC1)N1CCN(S(=O)(=O)c2ccc(C(C)(C)C)cc2)CC1` (stereo not given), the inhibition entry in assay [1] and in assay [2] was “inactive” each time.
For `Cc1cc(OCC(=O)Nc2ccc(C(C)C)cc2)n(C)c(=O)c1C#N`, the inhibition entry in assay [1] and in assay [2] was “inactive” in each case.
As for `C[C@H](c1ccc2c(c1)CCCC2)N(C)c1ncc2c(N)nc(N)nc2n1`, the inhibition entry in assay [1] and in assay [2] was “inactive” throughout.
For `CC(=O)NC[C@H]1CN(c2ccc(N3CCSCC3)c(F)c2)C(=O)O1`, the inhibition result in assay [1] and in assay [2] was “inactive” each time.
For the compound `Clc1ccc(Cl)c(CO[C@H]2CCCC[C@@H]2n2ccnc2)c1`, the inhibition entry in assay [1] and in assay [2] was “inactive” throughout.
As to `CCCCOC(=O)Nc1cc2nc(C3CCCCC3)[nH]c2cc1N1CCCC1`, the inhibition result in assay [1] and in assay [2] was “inactive” in each case.
In the case of `CCC(Sc1nc2ccccc2o1)C(=O)Nc1nnc(C)s1` (stereo not given), the inhibition result in assay [1] and in assay [2] was “inactive” in each case.
With `CC1CCCCN1C(=O)NCCc1coc(-c2ccc(F)cc2)n1` (stereo not given), the inhibition result in assay [1] and in assay [2] was “inactive” in each case.
In the case of `Nc1ccc(C(=O)Nc2ccc(-c3nc4ccccc4o3)cc2)cc1`, the inhibition result in assay [1] and in assay [2] was “inactive” throughout.
On to `N#Cc1ccc(-c2cnc(N)c(-c3ccc(C(N)=O)cc3)n2)cc1`, for which the inhibition result in assay [1] and in assay [2] was “inactive” in each case.
For `COc1cccc(NC(=O)c2c(NC(=O)c3cccnc3)sc3c2CCC3)c1`, the inhibition entry in assay [1] and in assay [2] was “inactive” each time.
In the case of `CCCCCCCCCCCCCCCCOP(=O)([O-])OCC[N+](C)(C)C`, the inhibition result in assay [1] and in assay [2] was “inactive” in each case.
For `O=C(Nc1c(O)cccc1-c1nc2c(C(=O)O)cccc2o1)c1cc(-c2ccccc2)on1`, the inhibition result in assay [1] and in assay [2] was “inactive” each time.
For `COc1ccc(C2=NN(C3CCCCCC3)C(=O)C2(C)C)cc1OCc1ccccn1`, the inhibition entry in assay [1] and in assay [2] was “inactive” throughout.
Turning to `c1ccc(C[C@@H]2CN(c3nccc(Oc4ccc(-n5ccnc5)cc4)n3)CCN2)cc1`, the inhibition entry in assay [1] and in assay [2] was “inactive” each time.
For `NCC(=O)N1CCn2c(nc(-c3ccccc3)c2Nc2ccc3c(c2)OCO3)C1`, the inhibition entry in assay [1] and in assay [2] was “inactive” in each case.
Take `CC(C)C(NC(=O)Cc1cccc2ccccc12)C(=O)Nc1cccc(C#N)c1` (stereo not given): the inhibition entry in assay [1] and in assay [2] was “inactive” in each case.
Regarding `O=C(NCCc1c[nH]c2ccccc12)c1cc2ccccc2oc1=O`, the inhibition entry in assay [1] and in assay [2] was “inactive” throughout.
For the compound `Cn1c(=O)c2c(S(C)(=O)=O)snc2n(C)c1=O`, the inhibition entry in assay [1] and in assay [2] was “inactive” throughout.
On to `CCCNC(=O)N1CCC2(CC1)CC(=O)c1cc(C)ccc1O2`, for which the inhibition result in assay [1] and in assay [2] was “inactive” throughout.
With `CCCS(=O)(=O)N1CCC(CO)(Cc2ccccc2C(F)(F)F)CC1`, the inhibition entry in assay [1] and in assay [2] was “inactive” each time.
In the case of `COc1ccc(C2(C(=O)Nc3ccc(Br)cc3)CCCC2)cc1`, the inhibition entry in assay [1] and in assay [2] was “inactive” each time.
`CCCCS(=O)(=O)Nc1ccc2cnn(C)c2c1`: the inhibition entry in assay [1] and in assay [2] was “inactive” in each case.
In the case of `CCN(CC)C(=O)N1CCN(C)CC1`, the inhibition result in assay [1] and in assay [2] was “inactive” in each case.
For `CCOc1ccc2cc(-c3nn(C(C)(C)C)c(N)c3C(N)=O)cnc2c1`, the inhibition result in assay [1] and in assay [2] was “inactive” in each case.
With `COc1ccc(C(=N)N)cc1-c1cn(-c2ccc(C(=N)N)cc2)nn1`, the inhibition result in assay [1] and in assay [2] was “inactive” in each case.
As to `O=C(NCc1nnc2n1CCCCC2)c1ccc(-c2ccc(F)cc2)o1`, the inhibition entry in assay [1] and in assay [2] was “inactive” throughout.
On to `Cc1ccc2nc(Cl)c(CNCc3cccs3)cc2c1`, for which the inhibition entry in assay [1] and in assay [2] was “inactive” throughout.
`COc1ccccc1OCCCCn1c(C2CC2)nc2ccccc21`: the inhibition entry in assay [1] and in assay [2] was “inactive” in each case.
On to `O=C([C@@H](c1ccc(Cl)cc1)c1cccnc1)N1CCN(c2ccc(C(F)(F)F)cc2)CC1`, for which the inhibition result in assay [1] and in assay [2] was “inactive” in each case.
Turning to `CNC1C(OC2C(OC3C(O)C(O)C(N=C(N)N)C(O)C3N=C(N)N)OC(C)C2(O)C=O)OC(CO)C(O)C1O` (stereo not given), the inhibition result in assay [1] and in assay [2] was “inactive” throughout.
In the case of `Nc1nccc2ccc(Oc3ccncc3)cc12`, the inhibition entry in assay [1] and in assay [2] was “inactive” each time.
Regarding `CO[C@H]1/C=C\O[C@@]2(C)Oc3c(C)c(O)c4c(O)c(/c(=C/NN5CCN(C)CC5)c(O)c4c3C2=O)=N\C(=O)/C(C)=C\C=C/[C@H](C)[C@H](O)[C@@H](C)[C@@H](O)[C@@H](C)[C@H](OC(C)=O)[C@@H]1C`, the inhibition result in assay [1] and in assay [2] was “inactive” in each case.
With `Cc1ccc(-c2cc(C(=O)Nc3cccnc3)c3cc(Br)ccc3n2)cc1`, the inhibition result in assay [1] and in assay [2] was “inactive” each time.
In the case of `FC(F)(F)c1nnc2ccc(Cl)nn12`, the inhibition result in assay [1] and in assay [2] was “inactive” each time.
Regarding `CCOc1ccc(-c2nc(CNCCc3ccc(F)cc3)cs2)cc1`, the inhibition entry in assay [1] and in assay [2] was “inactive” throughout.
Take `Cc1cc(Cl)c(S(=O)(=O)N2CCCC2)cc1OCC(=O)NC1CCCCC1`: the inhibition entry in assay [1] and in assay [2] was “inactive” each time.
On to `Cn1ccnc1CNCCS(=O)(=O)c1cccc(Nc2ccc(-c3cccc(F)c3)cn2)c1`, for which the inhibition result in assay [1] and in assay [2] was “inactive” throughout.
In the case of `c1ccc(Oc2ccc(-c3cc(N4CCOCC4)[nH]n3)cc2)cc1`, the inhibition entry in assay [1] and in assay [2] was “inactive” in each case.
For the compound `C[C@H]1COc2c(N3CCN(C)CC3)c(F)cc3c(=O)c(C(=O)O)cn1c23`, the inhibition result in assay [1] and in assay [2] was “inactive” in each case.
With `Nc1ncc(-c2ccc(C(F)(F)F)nc2)cc1-c1ccc(C(F)(F)F)nc1`, the inhibition entry in assay [1] and in assay [2] was “inactive” in each case.
On to `Nc1ncnc2c1ncn2C[C@@H](O)[C@@H](O)C(=O)O`, for which the inhibition result in assay [1] and in assay [2] was “inactive” throughout.
As for `COc1ccc2nc(C)cc(OCC(=O)Nc3ccccc3OC)c2c1`, the inhibition result in assay [1] and in assay [2] was “inactive” each time.
`O=C(Nc1nnc(S)s1)c1cc(Br)ccc1Cl`: the inhibition entry in assay [1] and in assay [2] was “inactive” throughout.
As for `Cc1nn(C(=O)Nc2cccc(C(F)(F)F)c2)c(C)c1Sc1ncccn1`, the inhibition entry in assay [1] and in assay [2] was “inactive” each time.
With `CC1COC(Cn2cncn2)(c2ccc(Oc3ccc(Cl)cc3)cc2Cl)O1` (stereo not given), the inhibition result in assay [1] and in assay [2] was “inactive” each time.
Turning to `CCC(C)NC(=O)c1ccc(NC(=O)C2(c3ccccc3)CCCC2)cc1` (stereo not given), the inhibition result in assay [1] and in assay [2] was “inactive” in each case.
In the case of `c1ccc(-c2cc(N3CCCCC3)c3ccccc3n2)nc1`, the inhibition result in assay [1] and in assay [2] was “inactive” throughout.
Turning to `N=C(N)c1ccc(OCCCCCOc2ccc(C(=N)N)cc2)cc1`, the inhibition result in assay [1] and in assay [2] was “inactive” in each case.
Take `c1coc(CNc2nc(N3CCCCC3)nc3ccccc23)c1`: the inhibition entry in assay [1] and in assay [2] was “inactive” throughout.
